This is an account of results in US20110281834A1, “Pharmaceutical Formulations for Iontophoretic Delivery of a Corticosteroid” (priority 2008, published 2011).

Where two headings read alike, the source gives them in different places.

The solubility is the dissolved amount per volume that the medium holds.

The nature of data set [1]: Iontophoretic drug permeation through hairless rat skin in Franz diffusion cells. It is filed as in vitro ADME. Here is the method: Full thickness abdominal skin freshly excised from sacrificed hairless rats was equilibrated in the receptor buffer and mounted on Franz diffusion cells (0.64 cm^2). The donor compartment (0.5 ml) contained corticosteroid in an appropriate buffer. […] For triamcinolone acetonide (TMCA), 3.5 mg/mL TMCA formulation (in 25% w/w PEG 400, 25% ETOH, 15% cremophor RH40, qs to 100% with citrate buffer pH 5.0) was used for the donor compartment. […] The receptor compartment for TMCA was citrate buffer with 20% ethanol. […] TMCA has no charge at pH 5 and was therefore delivered by anodal iontophoresis to utilize electroosmosis. […] For TMCA, the anode (Silver-Silver Chloride) was placed in the donor chamber along with drug solution and the cathode (Silver wire) was placed in the receptor chamber. Electric current (0.2 to 0.4 mA/cm^2) was applied using a custom current control device for up to 1 hr, after which experiments were either terminated or allowed to continue passively for various durations. Samples (0.3 ml) were taken from the receptor chamber at predetermined time points following iontophoresis and were replaced with the same amount of receptor buffer. The apparatus was maintained at 37° C. with constant stirring in both the donor and receptor compartments to maintain sink conditions. The samples were then analyzed by HPLC to measure drug permeation through skin. […] The mobile phase consisted of 75/25 ammonium acetate (5 mM) and acetonitrile. For TMCA, samples of receptor fluid (injection volume 20 uL, run time 8 min) were analyzed using the same HPLC system with a flow rate of 0.8 ml/min and UV detection at 237 nm. The mobile phase consisted of 70/30 methanol and water. […] Control passive experiments were conducted in the same way except for the application of electric current. Data were expressed as means±standard deviations. All experiments were performed in at least triplicate.
Samples were removed periodically from the receptor and analyzed by HPLC.
Samples were measured periodically from the receptor and analyzed by HPLC over 24 hrs.
(§1) The effect of iontophoresis on the intradermal and transdermal permeation of TMCA using hairless rat skin in vitro was investigated using methods previously described. In addition, the amount of drug deposited in the stratum corneum and underlying skin after iontophoresis was quantified in vivo using tape stripping and skin extraction methods described previously. TMCA (3.5 mg/ml) was formulated in 15% cremophor RH40, 25% PEG 400 and 25% ethanol (95%), in citrate buffer pH 5.0. Anodal iontophoresis was performed for 1 h at 0.2 mA/cm^2.

Data set [2] is described as follows: Solubility in solubilizer solutions (shaken overnight, supernatant by HPLC). It is filed as physicochemical. To be noted: for solubility: solubilizer solution, thermodynamic from solid, read-out: Solubility, Final conc. Here is the method: Triamcinolone acetonide is poorly ionized and has a poor solubility profile; to overcome this, individual as well as combinations of potential solubilizers were tested. TMCA (2.5 mg) was mixed into 1 mL of the individual components or mixtures of potential solubilizers and shaken overnight; drug was then added to all clear solutions which were then mixed overnight. The samples were then centrifuged and the supernatants analyzed by HPLC to determine drug solubility.
DEX-P (100 mg) was mixed into 1 mL of the individual components or mixtures of potential solubilizers and shaken overnight. Additional drug (100 mg) was added to clear solutions and mixed overnight. The samples were then centrifuged and the supernatants analyzed by HPLC to determine drug solubility.

A short description of data set [3]: In vivo skin delivery: tape stripping (stratum corneum) and skin extraction (underlying skin). Also noted: species or system hairless rat.
Excerpt: After wiping excess drug off the skin using a moist kimwipe, pre-weighed tape strips were placed on the area exposed to the drug and made sure they adhered to the skin by rolling with a glass rod for 30 seconds. After rolling, the tape strips were held from one end with a pair of forceps and ripped off the skin very quickly. The first strip was discarded to remove the remnants of the drug on the skin. This process was continued with 30 strips to fully remove the stratum corneum and each strip analyzed for drug content by immersing in 1 mL extraction buffer for 1 hr under gentle stirring (150 rpm). […] All tape strip extracts were analyzed with HPLC. […] TEWL values were also recorded after every five strips.
After tape stripping, the rats were euthanized and the underlying skin excised. Before proceeding for skin extraction studies, the weight of the excised skin piece was recorded. This excised skin was minced into small pieces and placed into glass vials. To this minced skin, 1 mL deionised water was added and shaken for 30 minutes on a shaker. To this 100 μL of 0.1% HCl was added and centrifuged. To the centrifuged sample 6 mL of methylene chloride was added and shaken for 30 minutes. The methylene chloride (organic) extract was then evaporated under nitrogen. The methylene chloride addition and evaporation step was repeated and combined with the previous extraction. After evaporation, the samples were reconstituted using 1 mL of acetonitrile, filtered and filled in HPLC vials and analyzed accordingly. For TMCA, 30/70 chloroform and methanol was used as the extraction solvent. […] The measured drug levels from the skin were corrected for recovery.
as §1
Hairless rats (n=4 per group) were anesthetized with ketamine (75 mg/kg) and xylazine (10 mg/kg) administered intraperitoneally. Once the rats were anaesthetized, the abdominal area was wiped with water and alcohol swabs. The cartridge loaded with the donor formulation was placed on the abdomen of each rat and connected to the power supply (Keithley Instruments, Cleveland, Ohio) for cathodal delivery. The counter electrode was placed around 3 cm away from the drug cartridge, and connected to the respective polarity of the power supply. The cartridge and the counter electrode were made sure to be in contact with the skin and a bandage was placed to prevent them from any further movement. Skin portion around the cartridge approximately 0.5 cm was marked for excision after the study to determine the lateral diffusion of the drug. Iontophoresis was conducted at a current density of 0.2 mA/cm^2 for 15 or 60 minutes. The donor cartridge was removed from the skin after iontophoresis and the skin was wiped with a moist kimwipe to remove any remaining drug on the skin. The skin was then tape stripped (30 strips) to remove the stratum corneum and the drug in the strips evaluated (with the first strip discarded for surface drug removal). The drug in the underlying skin was then extracted.

Setting [4] is: cathodal 0.2 mA/cm2 for 15 minutes, FIG. 6B.
Where [5] appears, read: cathodal 0.2 mA/cm^2 for 60 minutes, FIG. 6A.
The mark [6] stands for this setting: 3.5 mg/ml, pH 5.0, anodal iontophoresis 0.2 mA/cm^2 for 1 h.
Where [7] appears, read: 3.5 mg/ml, pH 5.0, passive delivery.

Regarding `C[C@@H]1C[C@H]2[C@@H]3CCC4=CC(=O)C=C[C@]4(C)[C@@]3(F)[C@@H](O)C[C@]2(C)[C@@]1(O)C(=O)COP(=O)(O)O` [DEX, dexamethasone sodium phosphate], the “permeation over time, 10 mg/mL” value in data set [1] (10 mg/mL in phosphate buffer pH 7.4, cathodal 0.2 mA/cm^2 for 1 hr, 24 hrs, FIG. 4) is reported as “lower permeation over time compared to the higher drug concentrations”. Also, the “cumulative permeation over 24 hrs, iontophoresis” value in data set [1] (25 mg/mL in phosphate buffer pH 7.4, cathodal 0.4 mA/cm^2 for 1 hr, sampled 24 hrs, FIG. 2) was “increased quite rapidly during the initial several hours and continued to increase up to 24 hrs”. For the same molecule, the “cumulative permeation over 24 hrs, passive” value in data set [1] (25 mg/mL in phosphate buffer pH 7.4, passive delivery (no current), FIG. 2) is reported as “initially low but gradual increase”. Also, in data set [1] (25 mg/mL, pH 7.4, cathodal 0.4 mA/cm^2 for 4 hr, FIG. 3), the “permeation over time, 4 hr iontophoresis” value was “highest permeation”. The “cumulative permeation, cathodal vs anodal iontophoresis” value in data set [1] (25 mg/mL, cathodal in phosphate buffer pH 7.4 vs anodal in citrate buffer pH 3.5, 0.4 mA/cm^2 for 2 hours, sampled for 24 hrs, FIG. 1) was “significant improvement in permeation compared to anodal iontophoresis”. For the same molecule, the “permeation over time, 25 and 50 mg/mL” value in data set [1] (25 and 50 mg/mL in phosphate buffer pH 7.4, cathodal 0.2 mA/cm^2 for 1 hr, 24 hrs, FIG. 4) is “similar”. For the same molecule, in data set [2] (aqueous buffer, Phosphate buffer), the solubility was 70000 µg/mL. In addition, the solubility in data set [2] (aqueous with cosolvent or surfactant or cyclodextrin, 15% ethanol (95%), 20% PEG400, 20% glycerin, in phosphate buffer (w/w)) is 156000 µg/mL. For the same molecule, the solubility in data set [2] (aqueous with cosolvent or surfactant or cyclodextrin, 15% ethanol (95%), 30% PEG400, 20% glycerin, in phosphate buffer (w/w)) stood at 197000 µg/mL. Also, in data set [3] (0.2 mA/cm2 for 15 minutes, measured 0, 24 and 48 hours after, FIG. 6C), the “drug level in the skin over time after iontophoresis (depot)” value is “decreased slowly over time and was detectable at 48 hrs after iontophoresis”. Moreover, in data set [3] (setting [4]), the “initial drug level in stratum corneum, iontophoresis 15 min” value was 13.63 ± 2.4 µg and the “initial drug level in underlying skin, iontophoresis 15 min” value worked out at 1.70 ± 1.70 µg. For the same molecule, in data set [3] (setting [5]), the “amount in stratum corneum, iontophoresis 60 min” value worked out at 23.70 ± 6.19 µg and the “amount in underlying skin, iontophoresis 60 min” value stood at 2.18 ± 0.69 µg. Further, in data set [3] (passive group, 60 minutes), the “localization of drug in skin, passive” value is listed as “all of the drug was localized in the stratum corneum layer”. The “total delivered into skin, iontophoresis” value in data set [3] (phosphate buffer pH 7.4, cathodal 0.2 mA/cm^2 for 60 minutes, immediately after, FIG. 6A) turned out to be 25.88 ± 5.91 µg. In data set [3] (phosphate buffer pH 7.4, passive treatment 60 minutes, FIG. 6A), the “total delivered into skin, passive” value amounted to 13.31 ± 2.69 µg. Besides, the “drug in peripheral skin areas outside the contact area (lateral diffusion)” value in data set [3] (skin about 0.5 cm around the cartridge) is given as “No drug was detected”.

For `CC1(C)O[C@@H]2C[C@H]3[C@@H]4CCC5=CC(=O)C=C[C@]5(C)[C@@]4(F)[C@@H](O)C[C@]3(C)[C@]2(C(=O)CO)O1` [TMCA, triamcinolone acetonide], the “levels in the receptor chamber” value in data set [1] (3.5 mg/ml in 15% cremophor RH40, 25% PEG 400, 25% ethanol, citrate buffer pH 5.0, with or without anodal iontophoresis 0.2 mA/cm^2 for 1 h) is “No detectable levels”. Besides, the “Solubility, Final conc” value was determined as 4420 µg/mL in data set [2] (15% cremophor, 25% ethanol, 25% PEG 400 (w/w)) and 1980 µg/mL in data set [2] (15% cremophor, 25% ethanol, 25% PEG 3350 (w/w)). The solubility amounted to 120 µg/mL in data set [2] (aqueous with cosolvent or surfactant or cyclodextrin, 5% tween 80 (w/w)); 480 µg/mL in data set [2] (aqueous with cosolvent or surfactant or cyclodextrin, 15% cremophor (w/w)); 1380 µg/mL in data set [2] (aqueous with cosolvent or surfactant or cyclodextrin, 15% cremophor, 25% ethanol (w/w)); 2430 µg/mL in data set [2] (aqueous with cosolvent or surfactant or cyclodextrin, 15% cremophor, 25% ethanol, 25% glycerin (w/w)); 1240 µg/mL in data set [2] (aqueous with cosolvent or surfactant or cyclodextrin, 15% cremophor, 50% PEG 400 (w/w)); 1180 µg/mL in data set [2] (aqueous with cosolvent or surfactant or cyclodextrin, 15% cremophor, 50% glycerin (w/w)). Further, the solubility in data set [2] (aqueous with cosolvent or surfactant or cyclodextrin, 25% PEG 400 (w/w)) is 70 µg/mL; in data set [2] (aqueous with cosolvent or surfactant or cyclodextrin, 25% PEG 3350 (w/w)), 80 µg/mL; in data set [2] (aqueous with cosolvent or surfactant or cyclodextrin, 25% Propylene glycol (w/w)), 60 µg/mL; in data set [2] (aqueous with cosolvent or surfactant or cyclodextrin, 25% ethanol (w/w)), 230 µg/mL; in data set [2] (aqueous with cosolvent or surfactant or cyclodextrin, 25% glycerin (w/w)), 30 µg/mL. The “amount deposited in the underlying skin after tape stripping, iontophoresis” value in data set [3] (setting [6]) was found to be 1.15 ± 0.32 µg. In addition, in data set [3] (setting [6]), the “amount in the stratum corneum, iontophoresis” value worked out at 16.43 ± 1.99 µg. Besides, the “amount deposited in the underlying skin after tape stripping, passive” value in data set [3] (setting [7]) stood at 0.34 ± 0.08 µg. Also, the “amount in the stratum corneum, passive” value in data set [3] (setting [7]) is 19.66 ± 1.35 µg.
